Data as given in patent US11578079B2, “SUMO inhibitor compounds and uses thereof” (CITY OF HOPE, priority 2018, dated 2023).

Columns and labels:
c-Myc = c-Myc activity (Table I, biological activities); parameters: key: + (less active); ++ (active); +++ (most active)
SUMO = molecular target: T1, SUMO (Homo sapiens, UniProt Q9UBT2); assay: SUMO activity (Table I, biological activities); assay type: biochemical; parameters: key: + (less active); ++ (active); +++ (most active)
T1 sequence (Q9UBT2 1-640): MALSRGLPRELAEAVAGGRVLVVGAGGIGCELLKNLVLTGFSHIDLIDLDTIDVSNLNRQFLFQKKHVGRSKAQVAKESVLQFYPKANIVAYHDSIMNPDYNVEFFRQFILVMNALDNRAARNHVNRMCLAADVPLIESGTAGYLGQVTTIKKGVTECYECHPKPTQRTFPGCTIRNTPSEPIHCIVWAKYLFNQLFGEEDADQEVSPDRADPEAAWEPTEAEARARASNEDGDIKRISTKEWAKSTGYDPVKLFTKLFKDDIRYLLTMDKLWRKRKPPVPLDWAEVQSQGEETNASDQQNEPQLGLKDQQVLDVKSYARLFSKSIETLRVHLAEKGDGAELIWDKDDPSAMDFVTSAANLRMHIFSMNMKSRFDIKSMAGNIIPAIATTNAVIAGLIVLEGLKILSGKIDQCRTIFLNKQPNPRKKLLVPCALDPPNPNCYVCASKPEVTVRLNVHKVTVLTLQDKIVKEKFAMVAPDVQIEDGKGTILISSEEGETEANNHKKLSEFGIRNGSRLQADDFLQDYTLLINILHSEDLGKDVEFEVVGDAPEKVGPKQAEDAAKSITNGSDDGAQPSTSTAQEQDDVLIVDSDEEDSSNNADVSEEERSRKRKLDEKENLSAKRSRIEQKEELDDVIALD
T1 sequence (Q9UBE0 1-346 partner): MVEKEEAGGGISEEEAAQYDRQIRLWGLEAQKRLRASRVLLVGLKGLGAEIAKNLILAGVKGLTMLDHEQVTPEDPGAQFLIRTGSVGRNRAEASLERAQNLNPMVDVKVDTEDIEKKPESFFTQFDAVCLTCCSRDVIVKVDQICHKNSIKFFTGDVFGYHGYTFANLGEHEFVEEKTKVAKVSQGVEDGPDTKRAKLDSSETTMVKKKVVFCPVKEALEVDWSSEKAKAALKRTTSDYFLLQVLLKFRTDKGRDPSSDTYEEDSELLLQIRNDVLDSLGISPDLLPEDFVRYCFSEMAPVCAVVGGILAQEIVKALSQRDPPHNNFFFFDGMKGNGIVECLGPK

SUMO (SUMO)	Structure (SMILES)	c-Myc (c-Myc)
+	O=C(C1=CC2(C(Cc3ccccc3)Nc3ccccc3)C=CC1O2)c1ccc(F)cc1 (stereo not drawn) [Compound 525]	+
+	CC12C=CC(C(Cc3ccccc3)Nc3ccccc3)(C=C1C(=O)c1ccc(F)cc1)O2 (stereo not drawn) [Compound 526]	+
+	CC(=O)C1=CC2(C(Cc3ccccc3)Nc3ccccc3)C=CC1(C)O2 (stereo not drawn) [Compound 527]	+
++	COC(=O)C1=C(C(=O)Nc2ccccc2)C2C=CC1(C(Cc1ccccc1)Nc1cccc(CO)c1)O2 (stereo not drawn) [Compound 528]	++
++	COC(=O)C1=C(C(=O)NCc2ccccn2)C2OC1(C(Cc1ccccc1)Oc1ccccc1)C1OC21 (stereo not drawn) [Compound 547]	++
+++	CCOC(=O)C1=C(C(=O)Nc2cccnc2)C2C=CC1(C(Nc1ccccc1)c1ccc(CN3CCOCC3)cc1)O2 (stereo not drawn) [Compound 550]	+
++	CCOC(=O)C1=C(C(N)=O)C2C=CC1(C(Nc1ccccc1)c1ccc(CN3CCOCC3)cc1)O2 (stereo not drawn) [Compound 552]	+
++	COC(=O)C1=C(C(=O)OC)C2(C(Cc3ccccc3)N(C(=O)C(F)(F)F)c3ccccc3)C=CC1O2 (stereo not drawn) [Compound 554]	++
+	COC(=O)C1=C(C(=O)OC)C2(C(Cc3ccccc3)N(C(=O)C(F)(F)F)c3ccccc3)OC1C1=C2O1 (stereo not drawn) [Compound 555]	+
+	CCOC(=O)C1=C(C(=O)Nc2ccc(C)c(F)c2)C2C=CC1(C(Nc1ccccc1)c1ccc(CN3CCOCC3)cc1)O2 (stereo not drawn) [Compound 558]	+
++	CCOC(=O)C1=C(C(=O)NCCN2CCCC2)C2C=CC1(C(Cc1ccccc1)Nc1ccccc1)O2 (stereo not drawn) [Compound 564]	+
+	CCOC(=O)C1=C(C(=O)Nc2ccc(CN(C)C)cc2)C2C=CC1(C(Nc1ccccc1)c1ccc(CN3CCOCC3)cc1)O2 (stereo not drawn) [Compound 565]	+
++	CCOC(=O)C1=C(C(=O)Nc2ccc(OC)cc2)C2C=CC1(C(Nc1ccccc1)c1ccc(CN3CCOCC3)cc1)O2 (stereo not drawn) [Compound 567]	+
+	CCOC(=O)C1=C(C(=O)Nc2ccc(Oc3ccccc3)cc2)C2C=CC1(C(Nc1ccccc1)c1ccc(CN3CCOCC3)cc1)O2 (stereo not drawn) [Compound 569]	+
++	CCOC(=O)C1=C(C(=O)NCCN(C)C)C2C=CC1(C(Nc1ccccc1)c1ccc(CN3CCOCC3)cc1)O2 (stereo not drawn) [Compound 571]	+
+	CCOC(=O)C1=C(C(=O)Nc2ccc(C)nc2)C2C=CC1(C(Nc1ccccc1)c1ccc(CN3CCOCC3)cc1)O2 (stereo not drawn) [Compound 573]	+
++	C#Cc1ccc(NC(=O)C2=C(C(=O)OCC)C3(C(Nc4ccccc4)c4ccc(CN5CCOCC5)cc4)C=CC2O3)cc1 (stereo not drawn) [Compound 577]	++
+	CCOC(=O)C1=C(C(=O)Nc2ccc(C)c(F)c2)C2(C)C=CC1(C(Nc1ccccc1)c1ccc(CN3CCOCC3)cc1)O2 (stereo not drawn) [Compound 579]	+
+	CCOC(=O)C1=C(C(=O)Nc2ccc(OC)cc2)C2(C)C=CC1(C(Nc1ccccc1)c1ccc(CN3CCOCC3)cc1)O2 (stereo not drawn) [Compound 581]	+

SUMO (SUMO)	Structure (SMILES)	c-Myc (c-Myc)
++	COC(=O)C1=C(C(=O)OC)C2(C(Cc3ccccc3)Nc3ccccc3)C=CC1(C)O2 (stereo not drawn) [Compound 586]	+
+	CCOC(=O)C1=C(C(=O)N(C)C)C2C=CC1(C(Nc1ccccc1)c1ccc(CN3CCOCC3)cc1)O2 (stereo not drawn) [Compound 590]	+
++	CCOC(=O)C1=C(C(=O)Nc2ccccc2C)C2C=CC1(C(Nc1ccccc1)c1ccc(CN3CCOCC3)cc1)O2 (stereo not drawn) [Compound 591]	++
+	CCOC(=O)C1=C(C(=O)N(C)C)C2C=CC1(C(Cc1ccccc1)Nc1ccccc1)O2 (stereo not drawn) [Compound 593]	+
++	COC(=O)C1=C(C(=O)NCCN(C)C)C2(C)C=CC1(C(Cc1ccccc1)Nc1ccccc1)O2 (stereo not drawn) [Compound 594]	+
++	CCOC(=O)C1=C(C(=O)Nc2ccccc2F)C2C=CC1(C(Nc1ccccc1)c1ccc(CN3CCOCC3)cc1)O2 (stereo not drawn) [Compound 595]	+
+	CCOC(=O)C1=C(C(=O)Nc2ccccc2OC)C2C=CC1(C(Nc1ccccc1)c1ccc(CN3CCOCC3)cc1)O2 (stereo not drawn) [Compound 597]	++
++	CCOC(=O)C1=C(C(=O)Nc2ccc(OC(F)(F)F)cc2)C2C=CC1(C(Nc1ccccc1)c1ccc(CN3CCOCC3)cc1)O2 (stereo not drawn) [Compound 599]	++
++	CCOC(=O)C1=C(C(=O)Nc2ccc(F)cc2)C2C=CC1(C(Nc1ccccc1)c1ccc(CN3CCOCC3)cc1)O2 (stereo not drawn) [Compound 601]	+
++	CCOC(=O)C1=C(C(=O)Nc2ccccc2)C2C=CC1(C(Nc1ccccc1)c1ccc(CN3CCOCC3)cc1)O2 (stereo not drawn) [Compound 604]	+
++	CCOC(=O)C1=C(C(=O)Nc2ccc(Cl)cc2)C2C=CC1(C(Nc1ccccc1)c1ccc(CN3CCOCC3)cc1)O2 (stereo not drawn) [Compound 606]	+
+	CCOC(=O)C1=C(C(=O)Nc2ccccc2Oc2ccccc2)C2C=CC1(C(Nc1ccccc1)c1ccc(CN3CCOCC3)cc1)O2 (stereo not drawn) [Compound 608]	+
+	CCOC(=O)C1=C(C(=O)Nc2ccc(OC)cc2OC)C2C=CC1(C(Nc1ccccc1)c1ccc(CN3CCOCC3)cc1)O2 (stereo not drawn) [Compound 610]	+
+	CCOC(=O)C1=C(C(=O)Nc2ccc(C)c(F)c2)C2C=CC1(C(Nc1ccc(C#N)cc1)c1ccc(CN3CCOCC3)cc1)O2 (stereo not drawn) [Compound 612]	+
+	CCOC(=O)C1=C(C(=O)Nc2ccc(C)c(F)c2)C2C=CC1(C(Nc1ccc(C)cc1)c1ccc(CN3CCOCC3)cc1)O2 (stereo not drawn) [Compound 613]	+
+	CCOC(=O)C1=C(C(=O)Nc2ccc(C)c(F)c2)C2C=CC1(C(Nc1cccc(OC)c1)c1ccc(CN3CCOCC3)cc1)O2 (stereo not drawn) [Compound 615]	+
++	CCOC(=O)C1=C(C(=O)Nc2c(C)cccc2CC)C2C=CC1(C(Nc1ccccc1)c1ccc(CN3CCOCC3)cc1)O2 (stereo not drawn) [Compound 617]	++
+	CCOC(=O)C1=C(C(=O)Nc2ccc(C)c(F)c2)C2C=CC1(C(Nc1ccc(OC)cc1)c1ccc(CN3CCOCC3)cc1)O2 (stereo not drawn) [Compound 621]	+
++	CCOC(=O)C1=C(C(=O)Nc2ccc(C)c(F)c2)C2C=CC1(C(Nc1cccc(C)c1)c1ccc(CN3CCOCC3)cc1)O2 (stereo not drawn) [Compound 623]	+

Structure (SMILES)	SUMO (SUMO)	c-Myc (c-Myc)
CCOC(=O)C1=CC2OC1(C(Nc1ccccc1)c1ccccc1)c1ccccc12 (stereo not drawn) [Compound 625]	+	+
